Structures are written as SMILES.

The values below come from patent US20210292438A1, “CONDITIONAL INTERNALIZATION OF PEGYLATED AGENTS BY PRETARGETING BI-SPECIFIC PEG-BINDING ANTIBODIES FOR DIAGNOSIS AND THERAPY” (ACADEMIA SINICA, priority 2017, published 2021).

The conditions of data set [1]: SCID mice; cited from earlier work.
In data set [2] the test system is human MDA-MB-468 TNBC or MDA-MB-231 TNBC xenografts. Briefly: Anti-tumor activity of pre-targeted PEG engager in xenografts. The class given is in vivo, SCID mice. The following applies: i.v. once a week for 4 weeks; engager 5 h before drug; free doxorubicin 3 mg/kg, Doxisome 1 mg/kg. How it is done: Anti-tumor activity of PEG engager was tested in mice bearing human MDA-MB-468 TNBC or MDA-MB-231 TNBC xenografts following the procedure below.
Groups of severe combined immunodeficiency (SCID) mice bearing 44.7±10.7 mm^3 MDA-MB-231 (n=6) or 84.3±4.3 mm^3 subcutaneous MDA-MB-468 (n=8) tumors on their right flanks were intravenously injected with PBS or with 6 or 18 mg/kg PEG engagers. After 5 h, the mice were intravenously administrated with free doxorubicin (3 mg/kg) or Doxisome (1 mg/kg or 3 mg/kg). This treatment was repeated once a week for a total of 4 weeks. Tumour sizes were measured every 7 days.

On to `COc1cccc2c1C(=O)c1c(O)c3c(c(O)c1C2=O)C[C@@](O)(C(=O)CO)C[C@@H]3O[C@H]1C[C@H](N)[C@H](O)[C@H](C)O1` [doxorubicin], for which, in data set [1], the maximum-tolerated dose is 2.5 to 3 mg/kg. The tumor growth result in data set [2] is “suppressed tumor growth”.
